In patent US20160022636A1, “PHYSIOLOGICAL LIGANDS FOR GPR139” (JANSSEN PHARMACEUTICA NV, priority 2013, published 2016):
“And” between values parts separate entries of the source, which are not always exact repeats. Equal entries are not always repeated.

Legend:
GO2Q alone = assay: GTPγS binding assay, control membranes from COS7 cells expressing GO2Q alone (Ct-GO2Q); type: biochemical; details: for Activation levels (GTPγS binding signal), Ct-GO2Q: 1 mM final concentration, single wells of triplicate, COS7 membranes with GO2Q alone (control panel); for activation of membranes from cells expressing GO2Q alone (in words): 1 mM, same assay
Source text: (§1) Human (A and B) or mouse (C and D) GPR139 were co-transfected with chimeric G-protein GO2Q into COS7 cells. Cell membranes from transfected cells were used in GTPγS binding studies using various ligands at different concentrations to stimulate GPR139. Membranes from COS7 cells transfected by GO2Q were used as the controls (E and F).
(§2) In order identify the ligands for GPR139 two improvements in the detection assay were made to allow for the ligands to be detected. First, we chose to use a GTPγS binding assay instead of using live cultured cells. The GTPγS binding assay is a cell free system that uses the cell membrane of the cell(s) of interest rather than the live cell(s). One advantage of this assay is that potential ligands present in the cell culture media are washed away when the cell membrane is prepared. This reduces the basal level of signal and increase the chance of detecting receptor ligands when assessing compounds that activate the receptor. Second, a GO2Q chimeric G-protein was created to be co-expressed with GPR139 in order to increase the signal-to-noise ratio in the GTPγS binding assay. Historically, the Gi, Go coupled GPCRs offer much greater signal-to-noise ratio in GTPγS binding studies. For Gs and Gq coupled GPCRs, although ligand-stimulated specific signals can be detected in a GTPγS binding assay, the signal-to-noise ratios are often very small. To address this a chimeric GO2-Gq chimeric G-protein, GO2Q, with the N-terminus from Go2 protein and the C-terminus from Gq protein.
(§3) To test for compounds that activate GPR139, different amino acids and their derivatives (Table 2) were tested as ligands in the GTPγS binding assay using cell membranes from COS7 cells co-expressing GPR139 and GO2Q. Cell membrane from COS7 cells expressing GO2Q alone or co-expressing other GPCRs were also tested in GTPγS binding assay in parallel as controls. Each compound was tested in triplicate.

mouse GPR139 = molecular target: T1, mouse GPR139 (Mus musculus, UniProt Q80UC8); assay: GTPγS binding dose response, COS7 membranes co-transfected with mouse GPR139 and GO2Q; type: biochemical; details: mouse GPR139, FIG. 2 C and D
T1 construct: expressed in transfected cells; host or cells: COS7
T1 sequence (Q80UC8 1-345): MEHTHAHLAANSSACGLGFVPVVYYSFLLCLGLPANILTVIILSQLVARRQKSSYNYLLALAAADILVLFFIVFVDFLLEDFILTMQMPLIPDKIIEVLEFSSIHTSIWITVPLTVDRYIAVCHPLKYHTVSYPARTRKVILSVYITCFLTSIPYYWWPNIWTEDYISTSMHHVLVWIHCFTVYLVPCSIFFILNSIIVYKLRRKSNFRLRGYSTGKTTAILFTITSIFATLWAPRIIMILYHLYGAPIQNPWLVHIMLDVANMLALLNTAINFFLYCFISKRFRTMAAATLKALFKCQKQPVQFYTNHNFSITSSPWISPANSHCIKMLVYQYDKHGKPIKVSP
Source text: as §1, with “FIG. 2: Tryptophan, phenylalanine, and their derivatives activate GPR139. Human” for “Human”

GPR21 = molecular target: T2, GPR21 (Homo sapiens, UniProt Q99679); assay: GTPγS binding assay, membranes co-expressing GO2Q and GPR21; type: biochemical; details: data not shown
T2 construct: expressed in transfected cells; host or cells: COS7
T2 sequence (Q99679 whole entry, species assumed): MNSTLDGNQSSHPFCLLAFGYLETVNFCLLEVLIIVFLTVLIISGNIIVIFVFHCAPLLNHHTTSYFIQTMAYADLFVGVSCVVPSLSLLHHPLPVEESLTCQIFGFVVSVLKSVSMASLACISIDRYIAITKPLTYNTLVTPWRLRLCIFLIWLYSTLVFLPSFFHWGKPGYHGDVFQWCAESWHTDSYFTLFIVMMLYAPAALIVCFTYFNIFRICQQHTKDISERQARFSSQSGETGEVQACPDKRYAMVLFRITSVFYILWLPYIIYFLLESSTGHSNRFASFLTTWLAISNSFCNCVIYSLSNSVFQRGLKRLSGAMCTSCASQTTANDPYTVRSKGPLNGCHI
Procedure: as §3

GPR52 = molecular target: T3, GPR52 (Homo sapiens, UniProt Q9Y2T5); assay: GTPγS binding assay, membranes co-expressing GO2Q and GPR52; type: biochemical; details: data not shown
T3 construct: expressed in transfected cells; host or cells: COS7
T3 sequence (Q9Y2T5 whole entry, species assumed): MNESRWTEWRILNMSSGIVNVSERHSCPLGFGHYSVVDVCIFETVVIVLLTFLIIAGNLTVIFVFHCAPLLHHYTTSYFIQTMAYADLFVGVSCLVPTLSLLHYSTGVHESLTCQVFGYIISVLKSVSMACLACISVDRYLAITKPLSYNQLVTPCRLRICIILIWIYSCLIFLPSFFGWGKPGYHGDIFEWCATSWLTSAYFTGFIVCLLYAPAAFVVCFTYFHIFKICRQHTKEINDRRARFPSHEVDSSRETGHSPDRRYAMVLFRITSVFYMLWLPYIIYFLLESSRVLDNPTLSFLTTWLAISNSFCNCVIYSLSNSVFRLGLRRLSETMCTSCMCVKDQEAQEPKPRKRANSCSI
Procedure: as §3

GPCR119 = assay: GTPγS binding assay, membranes co-expressing GO2Q and GPCR119; type: biochemical; details: data not shown
Procedure: as §3

GPCR132 = assay: GTPγS binding assay, membranes co-expressing GO2Q and GPCR132; type: biochemical; details: data not shown
Procedure: as §3

GPCR134 = assay: GTPγS binding assay, membranes co-expressing GO2Q and GPCR134; type: biochemical; details: data not shown
Procedure: as §3

GPR182 = molecular target: T4, GPR182 (Homo sapiens, UniProt O15218); assay: GTPγS binding assay, membranes co-expressing GO2Q and GPR182; type: biochemical; details: data not shown
T4 construct: expressed in transfected cells; host or cells: COS7
T4 sequence (O15218 whole entry, species assumed): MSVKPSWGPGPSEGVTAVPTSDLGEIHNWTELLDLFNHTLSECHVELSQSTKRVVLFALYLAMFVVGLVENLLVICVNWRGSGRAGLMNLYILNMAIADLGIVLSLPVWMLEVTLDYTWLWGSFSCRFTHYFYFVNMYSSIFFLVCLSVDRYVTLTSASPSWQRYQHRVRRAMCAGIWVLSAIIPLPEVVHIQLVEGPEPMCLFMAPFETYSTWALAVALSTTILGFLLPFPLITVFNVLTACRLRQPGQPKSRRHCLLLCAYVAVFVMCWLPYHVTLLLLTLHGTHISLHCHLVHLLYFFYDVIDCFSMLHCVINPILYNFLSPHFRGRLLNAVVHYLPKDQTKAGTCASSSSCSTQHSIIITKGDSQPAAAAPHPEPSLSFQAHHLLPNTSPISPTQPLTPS
Procedure: as §3

GPR139 [1] = molecular target: T5, GPR139 (Homo sapiens, UniProt Q6DWJ6); assay: GTPγS binding assay, membranes from COS7 cells co-expressing GPR139 and GO2Q, single concentration screen; type: biochemical; design: expressed in transfected cells; host or cells: COS7; details: for activation of GPR139 in GTPγS binding assay (in words): 1 mM; for Activation levels of GPR139 (GTPγS binding signal), GPR139-GO2Q: 1 mM final concentration, single wells of triplicate, COS7 membranes co-expressing GPR139 and GO2Q
T5 sequence (Q6DWJ6 1-353): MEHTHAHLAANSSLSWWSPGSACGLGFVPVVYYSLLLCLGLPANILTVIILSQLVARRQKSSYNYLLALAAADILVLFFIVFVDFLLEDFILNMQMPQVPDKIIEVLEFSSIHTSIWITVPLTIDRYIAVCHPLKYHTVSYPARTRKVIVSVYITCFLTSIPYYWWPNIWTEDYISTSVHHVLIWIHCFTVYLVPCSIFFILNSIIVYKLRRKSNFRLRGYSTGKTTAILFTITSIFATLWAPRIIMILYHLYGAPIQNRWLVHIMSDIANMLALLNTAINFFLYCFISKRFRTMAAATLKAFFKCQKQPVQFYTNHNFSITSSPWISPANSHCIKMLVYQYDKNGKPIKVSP
Procedure: as §2, §3

GPR139 [2] = molecular target: T5, GPR139; assay: GTPγS binding dose response, COS7 membranes co-transfected with human GPR139 and GO2Q; type: biochemical; design: expressed in transfected cells; host or cells: COS7; details: human GPR139, FIG. 2 A and B
Source text: as §1, with “FIG. 2: Tryptophan, phenylalanine, and their derivatives activate GPR139. Human” for “Human”

GPR139 [3] = molecular target: T5, GPR139; assay: calcium mobilization assay (FLIPR), GPR139 transiently expressed in HEK293 cells; type: cell-based; design: expressed in transfected cells; host or cells: HEK293; details: HEK293 cells transiently expressing human GPR139, FIG. 3
Source text: For these experiments human GPR139 was transiently expressed in HEK293 cells and calcium mobilization was stimulated using L-Trp, L-Phe or their derivatives.

| Structure (SMILES) | Activation levels (GTPγS binding signal), Ct-GO2Q (GO2Q alone) | activation of membranes from cells expressing GO2Q alone (in words) (GO2Q alone) | dose response activation of GPR139 (in words) (mouse GPR139) | activation of membranes co-expressing GO2Q and GPR21 (in words) (GPR21) | activation of membranes co-expressing GO2Q and GPR52 (in words) (GPR52) | activation of membranes co-expressing GO2Q and GPCR119 (in words) (GPCR119) | activation of membranes co-expressing GO2Q and GPCR132 (in words) (GPCR132) | activation of membranes co-expressing GO2Q and GPCR134 (in words) (GPCR134) | activation of membranes co-expressing GO2Q and GPR182 (in words) (GPR182) | activation of GPR139 in GTPγS binding assay (in words) (GPR139 [1]) | Activation levels of GPR139 (GTPγS binding signal), GPR139-GO2Q (GPR139 [1]) | dose response activation of GPR139 (in words) (GPR139 [2]) | stimulation of calcium mobilization (in words) (GPR139 [3]) |
| --- | --- | --- | --- | --- | --- | --- | --- | --- | --- | --- | --- | --- | --- |
| N[C@@H](Cc1ccccc1)C(=O)O [L-Phe, L-phenylalanine] | 2190 and 2215 and 2345 | did not activate | specifically activate GPR139 in a dose-responsive manner | did not activate | did not activate | did not activate | did not activate | did not activate | did not activate | able to activate GPR139 | 8697 and 6925 and 8417 | specifically activate GPR139 in a dose-responsive manner | specifically stimulate calcium mobilization |
| N[C@@H](Cc1c[nH]c2ccccc12)C(=O)O [L-Trp, L-tryptophan] | 2172 and 2234 and 2272 | did not activate | specifically activate GPR139 in a dose-responsive manner | did not activate | did not activate | did not activate | did not activate | did not activate | did not activate | able to activate GPR139 | 8141 and 9121 and 9149 | specifically activate GPR139 in a dose-responsive manner | specifically stimulate calcium mobilization |
